For 3 compounds, EC50 results are on record in ChEMBL document CHEMBL5223130, “Targeting SARS-CoV-2 Main Protease for Treatment of COVID-19: Covalent Inhibitors Structure-Activity Relationship Insights and Evolution Perspectives” (J Med Chem, 2022).

pEC50: −log10 of the molar value.

For assay [1], the system named is SARS-CoV-2. The assay is classed as functional, organism-based, Vero E6. Particulars: Severe acute respiratory syndrome coronavirus 2, 107, Vero C1008.
Assay [2] deals with SARS-CoV-2. Type of assay: functional, organism-based, Vero E6. Particulars: Severe acute respiratory syndrome coronavirus 2, Vero C1008.

In the assay on SARS-CoV-2 [1], `O=C[C@H](C[C@@H]1CCNC1=O)NC(=O)[C@@H]1[C@H]2CCC[C@H]2CN1C(=O)COc1ccc(Cl)cc1Cl` had a pEC50 of 6.27. Same read-out and setting: to `COc1ccc(OCC(=O)N2C[C@H]3[C@@H]([C@H]2C(=O)N[C@H](C=O)C[C@@H]2CCNC2=O)C3(C)C)cc1` belongs 6.07. The compound `O=c1c(O)c(-c2cc(O)c(O)c(O)c2)oc2cc(O)cc(O)c12` [MYRICETIN] gave a pEC50 in the assay with SARS-CoV-2 [2] of 5.10.
